Consider one molecule from patent US20220023269A1, “Methods Of Treating Diabetes In Severe Insulin-Resistant Diabetic Subjects” (Balticgruppen Bio AB, priority 2018, published 2022).

For one experiment, the system named is AMPK. The experiment can be described thus: SAMS peptide AMPK activity assay. It is filed as biochemical. The following applies: 2.5, 5 or 10 μM. The method, then:
50 ng AMPK (Upstate #14-305) was mixed in various combination with 2.5, 5 or 10 μM test material or 20 μM AMP (Sigma #A2002) in buffer (40 mM Hepes pH7.45, 0.5 mM DTT, 2 mM MgCl2, 0.1% DMSO). In all settings 10 μg SAMS and 0.03 μCi/μl ^32P ATP (Perkin Elmer #NEG502Z500UC) were added. Total reaction volume was 25 μl, all components mixed on ice and the reaction carried out at 37° C., 15 minutes, before terminated with 5 μl phosphoric acid, and placed back on ice. 25 μl reaction were dried in on Whatman P81 filters, 50° C., 2 minutes, washed 3 times in 250 ml 1% phosphoric acid, 2 minutes, before added to 4 ml liquid scintillation cocktail (Perkin Elmer #1200-437) and counted, 1 minute, in a Wallac 1414 beta counter. The radioactivity correlates to enzyme activity.

Experiment [1] relates to AMPK in Wi-38 human lung fibroblast cells. The experiment can be described thus: AMPK activation assay in Wi-38 cells (immunoblot). The settings on record: 2.5, 5 or 10 μM, 16 hours; dose-dependent. It is filed as cell-based. The method, then: (§1) All cell lines were lysed in 0.1 M Tris-HCl, pH 6.8, 2% SDS, 10 mM sodium fluoride (SIGMA #S7920), 10 mM β-glycerophosphate (SIGMA #G6376), and 1 mM sodium vanadate (SIGMA #72060) and supernatant collected after 1 minute at 14,000 rpm. Islets (human and mouse) were lysed in 0.1 M Tris-HCl, pH 6.8, 2% SDS, protease inhibitor (Roche #04 693 124 001) and phosphatase inhibitor (Roche #04 906 837 001). Right calf muscle, heart, iWAT, and interscapular BAT was crushed in a pestle using liquid nitrogen and homogenised in ice cold RIPA buffer (150 mM sodium chloride (SIGMA #S7653), 1.0% NP40 (USB), 0.5% sodium deoxycholate (SIGMA #D6750), 0.1% SDS, 50 mM Tris pH 8.0, 20 mM sodium pyrophosphate (SIGMA #71515), 10 mM sodium fluoride, 10 mM β-glycerolphosphate, 1 mM sodium vanadate and protease inhibitor cocktail (Roche #04693124001), 1 tablet/10 ml lysis buffer). The supernatant was collected after 2 min at 14,000 rpm. This procedure was repeated until all fat was eliminated and the supernatant was clear, at 4° C. Samples were analysed on 4-15% polyacrylamide gels. Values were normalised toward AMPKα, β-Actin, GAPDH or the respective non-phosphorylated counterpart.
(§2) Table 3 contains origin of cell lines, growth conditions and settings for activation of AMPK via the test material. […]
(In western blotting, separated proteins are transferred to a membrane and probed.)

In experiment [2] the test system is Wi-38 human lung fibroblast cells. The experiment in a line: Determination of cellular ATP content. It is filed as cell-based. The settings on record: 16 hours; dose-dependent. As to the method: Wi-38 human lung fibroblast cells were stimulated with test material for 16 hours. Thereafter ATP content were determined with the ATP bioluminescence assay kit HS II (Roche Applied Science #11699709001) according to manufacturer's recommendations. The ATP data were normalised to cellular protein determined using BCA protein assay kit (Pierce #23225).

In experiment [3] the test system is AMPK in rat insulinoma INS-1 cells. The experiment in a line: AMPK activation in INS-1 insulinoma cells. In kind it is cell-based. The following applies: 2.5, 5, 10 μM, 2 hours. As to the method:
as §1, §2

A further experiment has as its system Zucker rats. The experiment can be described thus: Infrared thermal imaging. It is filed as in vivo. The settings on record: 10 mg/kg/day, 12 days. The method, then:
Skin temperature of non-sedated Zucker rats that had been treated with test material (10 mg/kg/day) or vehicle for 12 days was recorded with an infrared camera (FLIR ix series Extech IRC30, FLIR systems Inc.) and analysed with a specific software package (FLIR QuickReport version 1.2 SP2 (1.0.1.217). 9 rats per group was used and mean and maximum skin surface temperatures were measured for each animal 2 hours after final dose administration.

On to `O=C(Nc1nc(=O)n(Cc2ccc(Cl)cc2)s1)c1ccc(Cl)cc1` [test material, 4-chloro-N-[2-[(4-chlorophenyl)methyl]-3-oxo-1,2,4-thiadiazol-5-yl]benzamide], for which the “allosteric activation of AMPK” value with AMPK is “did not allosterically activate AMPK”. Moreover, in experiment [1], the “levels of pAMPK (p-T172)” value is “increased” and the “p-S79 ACC (pACC) levels” value is “increased”. Moreover, the ATP/protein ratio result in experiment [2] is “increased”. Also, in experiment [3], the pAMPKα result is recorded as “directly increased pAMPKα”. Besides, the skin-surface temperature result in the experiment with Zucker rats is reported as “increased”.
